Reference: US20220153746A1, “NITROGEN OXIDE-DONATING PDE-5 AND/OR PDE-6 INHIBITOR COMPOUNDS, AND USES THEREOF” (ILDONG PHARMACEUTICAL CO., LTD., priority 2020, published 2022)
Several values for one entry are separate records, joined by “and”; a condition that tells them apart may be missing. Identical values can stand only once. Like-named read-outs stand apart in the source and are kept apart here.

Assay: TD Phase (Groups 1 and 3): plasma and ocular tissue concentrations and pharmacokinetics of Compound 18 and its metabolite Compound 4 after once daily ocular instillation of Compound 18 nanosuspension for 7 days
Assay type: in vivo, New Zealand white rabbits
Details: for Metabolite/Parent AUC Ratio: MW-corrected AUC of metabolite Compound 4 / parent Compound 18
Description: This example illustrates the procedures and results for the levels of Compound 18 and its metabolite Compound 4 in plasma and ocular tissues of normotensive rabbits following ocular instillation of Compound 18 once daily for 7 consecutive days.
Twenty five (25) male New Zealand white rabbits were divided into 5 groups of varying amounts of animals per group.
The Test article, Compound 18 was formulated as a 2% nanosuspension in DI water containing 0.2% PS80 (polyoxyethylenesorbitan, monooleate (Tween 80)) and 0.4% HPMC (hydroxypropylmethylcellulose) at pH 6.77. Referred to herein as “Compound 18 nanosuspension.”
The study consisted of three groups (Groups 1-3) of 19 male rabbits (NZW) that underwent once daily morning ocular installation (1 eyedrop) for 7 consecutive days (Day 0-6). Groups 4-5 each consisted of 3 male rabbits (NZW) that were not dosed.
Blood samples (1 mL) were collected from the jugular vein at the intervals set out below for each group. The samples were then inverted several times following collection and held on wet ice until centrifuged. Samples were centrifuged within 60 minutes of collection under refrigeration (set at 5° C. for 10 minutes at 2000 g.
Group 1 (Pilot Study, terminal blood collection): blood was collected from 3 animals at 1 hour post day 7 dose of Compound 18 nanosuspension.
Group 3 (TD Phase, terminal blood collection): blood was collected from 3 animals at 0.5 hour, 3 animals at 2 hours, 3 animals at 4 hours, and 3 animals at 8 hours post day 7 dose of Compound 18 nanosuspension.
(§1) Group 1 (Pilot Study): 3 animals were terminated at 1 hour post Day 7 dose of Compound 18 nanosuspension. Following blood collection and termination, ocular tissues (aqueous humor, vitreous humor, cornea, iris/ciliary body, lens, optic nerve, retina, sclera/choroid, and trabecular meshwork) were collected from each animal and the tissue weights were recorded. Note: sclera and choroid were collected together. Iris and ciliary body were collected together.
as §1, with “3 (TD Phase):” for “1 (Pilot Study):”, “0.5 hour, 3 animals at 2 hours, 3 animals at 4 hours, and 3 animals at 8 hours” for “1 hour”
Plasma and tissue samples from treated animals (Groups 1-3) were analyzed for Compound 18 and its metabolite Compound 4 concentrations by LC-MS/MS.
Pharmacokinetic analysis was conducted using WinNonlin Version 6.2.1 (Pharsight, Mountain View, Calif.), operating as a validated software system. Noncompartmental analysis was conducted using the extravascular administration model for ocular instillation dosing.
The peak plasma and ocular tissue concentration, time to achieve peak plasma and ocular tissue concentration, half-life, and area under the plasma and ocular tissue concentration-time curve (Cmax, Tmax, T1/2, and AUC) were calculated from the TD phase combined with the pilot study mean animal plasma and ocular tissue concentrations for each sampling time/dose group for Compound 18 and its metabolite Compound 4.
BA Assay: Quantitation Range 0.05 to 100 ng/mL for Compound 18, 0.15 to 100 ng/mL for Compound 4.
3. Pipet 50 μL of each type of pre-spiked ocular tissue samples (AH/VH) for QC samples, 50 μL of incurred aqueous humor, and vitreous humor sample (if applicable) into a 96 well plate.
Ocular Tissues Homogenate Preparation: Incurred rabbit ocular tissues were weighed in Genogrinder tubes (plastic tubes with small beads) at the time of removal from the animal and stored frozen (<−70° C.) until analysis. The rabbit incurred ocular tissues were thawed on wet ice. […]

[1] = TD Phase, Group 1, 1 h, individual animals
[2] = TD Phase, Group 3, 0.5 h, individual animals
[3] = TD Phase, Group 3, 2 h, individual animals
[4] = TD Phase, Group 3, 8 h, individual animals
[5] = male, New Zealand white, rabbit, topical or ocular, 0.8 mg/kg/day, aqueous humor, Day 7, from mean concentrations
[6] = male, New Zealand white, rabbit, topical or ocular, 0.8 mg/kg/day, cornea, Day 7, from mean concentrations
[7] = male, New Zealand white, rabbit, topical or ocular, 0.8 mg/kg/day, iris/ciliary body, Day 7, from mean concentrations
[8] = male, New Zealand white, rabbit, topical or ocular, 0.8 mg/kg/day, lens, Day 7, from mean concentrations

## CCCc1nn(C)c2c(=O)[nH]c(-c3cc(S(=O)(=O)N4CC(CCCO)C4)ccc3OCC)nc12 [Compound 4, 5-(2-ethoxy-5-((3-(3-hydroxypropyl)azetidin-1-yl)sulfonyl)phenyl)-1-methyl-3-propyl-1,6-dihydro-7H-pyrazolo[4,3-d]pyrimidin-7-one]
Aqueous Humor, Day 7
  Metabolite/Parent AUC Ratio: 21700
Cornea, Day 7, Compound 18 0.8 mg/kg ocular instillation once daily, Groups 1 and 3
  AUC0-8: 10096 ng·h/g
Cornea, Day 7
  Metabolite/Parent AUC Ratio: 52.7
Iris/Ciliary Body, Day 7, Compound 18 0.8 mg/kg ocular instillation once daily, Groups 1 and 3
  AUC0-8: 1795 ng·h/g
Iris/Ciliary Body, Day 7
  Metabolite/Parent AUC Ratio: 13.1
Lens, Day 7, Compound 18 0.8 mg/kg ocular instillation once daily, Groups 1 and 3
  AUC0-8: 68.7 ng·h/g
Optic Nerve, Day 7, Compound 18 0.8 mg/kg ocular instillation once daily, Groups 1 and 3
  AUC0-8: 159 ng·h/g
Plasma, Day 7
  Metabolite/Parent AUC Ratio: 6.72
Retina, Day 7, Compound 18 0.8 mg/kg ocular instillation once daily, Groups 1 and 3
  AUC0-8: 213 ng·h/g
Sclera/Choroid, Day 7, Compound 18 0.8 mg/kg ocular instillation once daily, Groups 1 and 3
  AUC0-8: 1494 ng·h/g
[1]
  Compound 4 Plasma Conc.: 0.412 ng/mL and 1.14 ng/mL and 0.839 ng/mL
  Final Compound 4 Sclera/Choroid Conc.: 171 ng/g and 240 ng/g
TD Phase, Group 1, 1 h, individual animals, BQL set to 0
  Final Compound 4 Retina Conc.: 25.6 ng/g and 90.7 ng/g and 34.8 ng/g
TD Phase, Group 1, 1 h, individual animals, homogenate dilution factor 8
  Compound 4 Sclera/Choroid Homogenate Conc.: 21.4 ng/mL and 30.0 ng/mL
[2]
  Compound 4 Plasma Conc.: 1.03 ng/mL and 0.812 ng/mL
  Final Compound 4 Sclera/Choroid Conc.: 154 ng/g and 142 ng/g and 331 ng/g
TD Phase, Group 3, 0.5 h, individual animals, homogenate dilution factor 8
  Compound 4 Sclera/Choroid Homogenate Conc.: 19.3 ng/mL and 17.7 ng/mL and 41.4 ng/mL
[3]
  Compound 4 Plasma Conc.: BQL (BQL = Below lower limit of quantitation (0.0500 ng/mL for Compound 18 and 0.150 ng/mL for Compound 4))
  Final Compound 4 Sclera/Choroid Conc.: 121 ng/g and 234 ng/g and 88.0 ng/g
TD Phase, Group 3, 2 h, individual animals, BQL set to 0
  Final Compound 4 Retina Conc.: 118 ng/g and 23.4 ng/g and 11.4 ng/g
TD Phase, Group 3, 2 h, individual animals, homogenate dilution factor 8
  Compound 4 Sclera/Choroid Homogenate Conc.: 15.1 ng/mL and 29.2 ng/mL and 11.0 ng/mL
TD Phase, Group 3, 2 h, individual animals, homogenate dilution factor 20 (164 for animal 207671)
  Compound 4 Retina Homogenate Conc.: 0.719 ng/mL and 1.17 ng/mL and 0.568 ng/mL
TD Phase, Group 3, 4 h, individual animals
  Compound 4 Plasma Conc.: BQL (BQL = Below lower limit of quantitation (0.0500 ng/mL for Compound 18 and 0.150 ng/mL for Compound 4))
TD Phase, Group 3, 4 h, individual animals, BQL set to 0
  Final Compound 4 Retina Conc.: 16.7 ng/g and 34.6 ng/g and 14.0 ng/g
TD Phase, Group 3, 4 h, individual animals, homogenate dilution factor 20
  Compound 4 Retina Homogenate Conc.: 0.835 ng/mL and 1.73 ng/mL and 0.702 ng/mL
TD Phase, Group 3, 8 h, Mean, BQL set to 0
  Compound 4 Plasma Conc.: BQL (BQL = Below lower limit of quantitation (0.0500 ng/mL for Compound 18 and 0.150 ng/mL for Compound 4))
[4]
  Compound 4 Plasma Conc.: BQL (BQL = Below lower limit of quantitation (0.0500 ng/mL for Compound 18 and 0.150 ng/mL for Compound 4))
  Compound 4 Vitreous Humor Conc.: BQL (BQL = Below lower limit of quantitation (0.0500 ng/mL for Compound 18 and 0.150 ng/mL for Compound 4))
TD Phase, Group 3, 8 h, individual animals, BQL set to 0
  Final Compound 4 Retina Conc.: 8.90 ng/g and 0 ng/g and 8.34 ng/g
TD Phase, Group 3, 8 h, individual animals, homogenate dilution factor 20
  Compound 4 Retina Homogenate Conc.: BQL^a (BQL = Below lower limit of quantitation (0.0500 ng/mL for Compound 18 and 0.150 ng/mL for Compound 4)) and 0.417 ng/mL
TD phase plasma and ocular tissues
  tissue of highest concentration: highest in cornea
Trabecular Meshwork, Day 7, Compound 18 0.8 mg/kg ocular instillation once daily, Groups 1 and 3
  AUC0-8: 533 ng·h/g
Vitreous Humor, Day 7
  Metabolite/Parent AUC Ratio: 447
cornea, Day 7, from mean concentrations
  AUC0-8: 10096 ng·h/g
iris/ciliary body, Day 7, from mean concentrations
  AUC0-8: 1795 ng·h/g
lens, Day 7, from mean concentrations
  AUC0-8: 68.7 ng·h/g
lens, TD phase
  Metabolite/parent AUC ratio (Compound 4 vs Compound 18): 63.0
male, New Zealand white, rabbit, plasma, other: ocular instillation, 0.8 mg/kg/day, TD Phase, Group 3, 0.5 h, Mean, BQL set to 0, read-out: Compound 4 Plasma Conc.
  concentration at 0.5 h: 1.02 ng/mL
male, New Zealand white, rabbit, plasma, other: ocular instillation, 0.8 mg/kg/day, TD Phase, Group 3, 0.5 h, individual animals, read-out: Compound 4 Plasma Conc.
  concentration at 0.5 h: 1.22 ng/mL
male, New Zealand white, rabbit, retina homogenate, other: ocular instillation (eye drop), 0.798 mg/kg/day, TD Phase, Group 3, 8 h, individual animals, homogenate dilution factor 20, read-out: Compound 4 Retina Homogenate Conc.
  concentration at 8 h: 0.445 ng/mL
male, New Zealand white, rabbit, retina, other: ocular instillation (eye drop), 0.798 mg/kg/day, TD Phase, Group 1, 1 h, Mean, read-out: Final Compound 4 Retina Conc.
  concentration at 1 h: 50.2 ng/g
male, New Zealand white, rabbit, retina, other: ocular instillation (eye drop), 0.798 mg/kg/day, TD Phase, Group 3, 2 h, Mean, read-out: Final Compound 4 Retina Conc.
  concentration at 2 h: 50.9 ng/g
male, New Zealand white, rabbit, retina, other: ocular instillation (eye drop), 0.798 mg/kg/day, TD Phase, Group 3, 4 h, Mean, read-out: Final Compound 4 Retina Conc.
  concentration at 4 h: 21.8 ng/g
male, New Zealand white, rabbit, retina, other: ocular instillation (eye drop), 0.798 mg/kg/day, TD Phase, Group 3, 8 h, Mean, read-out: Final Compound 4 Retina Conc.
  concentration at 8 h: 5.75 ng/g
male, New Zealand white, rabbit, sclera/choroid homogenate, other: ocular instillation (eye drop), 0.798 mg/kg/day, TD Phase, Group 1, 1 h, individual animals, homogenate dilution factor 8, read-out: Compound 4 Sclera/Choroid Homogenate Conc.
  concentration at 1 h: 17 ng/mL
male, New Zealand white, rabbit, sclera/choroid, other: ocular instillation (eye drop), 0.798 mg/kg/day, TD Phase, Group 1, 1 h, Mean, read-out: Final Compound 4 Sclera/Choroid Conc.
  concentration at 1 h: 182 ng/g
male, New Zealand white, rabbit, sclera/choroid, other: ocular instillation (eye drop), 0.798 mg/kg/day, TD Phase, Group 1, 1 h, individual animals, read-out: Final Compound 4 Sclera/Choroid Conc.
  concentration at 1 h: 136 ng/g
male, New Zealand white, rabbit, sclera/choroid, other: ocular instillation (eye drop), 0.798 mg/kg/day, TD Phase, Group 3, 0.5 h, Mean, read-out: Final Compound 4 Sclera/Choroid Conc.
  concentration at 0.5 h: 209 ng/g
male, New Zealand white, rabbit, sclera/choroid, other: ocular instillation (eye drop), 0.798 mg/kg/day, TD Phase, Group 3, 2 h, Mean, read-out: Final Compound 4 Sclera/Choroid Conc.
  concentration at 2 h: 148 ng/g
[5]
  Cmax: 124 ng/mL
  Tmax: 1 h
  half-life: 117 min
male, New Zealand white, rabbit, topical or ocular, 0.8 mg/kg/day, aqueous humor, Day 7, from mean concentrations, read-out: AUC0-8
  AUC(0-t): 314 ng·h/mL
[6]
  Cmax: 3600 ng/g
  Tmax: 1 h
  half-life: 158 min
[7]
  Cmax: 980 ng/g
  Tmax: 1 h
  half-life: 127 min
[8]
  Cmax: 18.1 ng/g
  Tmax: 1 h
  half-life: 135 min
